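48-hour exposure; five concentrations; linearly interpolated endpoints. TGI: total growth inhibition.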 Bounds are passed on as bounds.

This note sets out measurements from PubChem BioAssay (NCI).

Some test systems named below: 786-0 renal; A498 renal; A549 NSCLC; COLO 205 colon; EKVX NSCLC; HCT-116 colon; IGROV1 ovarian; MDA-MB-231 breast; MDA-MB-435; NCI-H460 lung; NCI/ADR-RES ovarian; OVCAR-4 ovarian; RPMI-8226 leukemia; SF-268 CNS; SF-295 CNS; SK-MEL-2 melanoma; SK-OV-3 ovarian; SN12C renal; TK-10 renal; UO-31 renal.
Holding throughout (experiment): growth of human tumour cells (NCI), 48 h

As for `COC(=O)/C=C\C(C#N)(C#N)N=Cc1ccc(C)cc1`, the TGI in the test on 786-0 renal turned out to be 3.44 µM; in the test with A498 renal it was 31.8 µM; in the test with A549 NSCLC, 34.3 µM; in the test with COLO 205 colon it was 4.56 µM; with EKVX NSCLC, 28.7 µM; with HCT-116 colon, 3.57 µM. For the same molecule, the TGI amounted to 26.3 µM with IGROV1 ovarian; 30.1 µM with MDA-MB-231 breast; 5.01 µM with MDA-MB-435; 41.1 µM in the test with NCI-H460 lung; 10.9 µM in the test on NCI/ADR-RES ovarian; 12.9 µM with OVCAR-4 ovarian. Also, the TGI turned out to be 3.52 µM with RPMI-8226 leukemia; 9.33 µM in the test on SF-268 CNS; 51 µM in the test on SF-295 CNS; 32.1 µM in the test on SK-MEL-2 melanoma; 31.6 µM with SK-OV-3 ovarian; 29.8 µM in the test on SN12C renal. The TGI with TK-10 renal is 3.65 µM; in the test on UO-31 renal it was 7.16 µM.
In the case of `NCCCN1c2ccccc2Sc2ccc(Cl)cc21`, the TGI in the test with 786-0 renal is over 10 µM; with A498 renal it was over 10 µM; in the test on A549 NSCLC, over 10 µM; in the test with COLO 205 colon, 3.27 µM; in the test with EKVX NSCLC, over 10 µM; in the test with HCT-116 colon, 7.03 µM. Also, the TGI was over 10 µM in the test on IGROV1 ovarian; over 8.72 µM with MDA-MB-231 breast; 4.01 µM with MDA-MB-435; over 7.31 µM in the test on NCI-H460 lung; over 10 µM with NCI/ADR-RES ovarian; over 10 µM in the test with OVCAR-4 ovarian. For the same molecule, the TGI in the test on RPMI-8226 leukemia, in the test with SF-268 CNS, in the test with SF-295 CNS, in the test with SK-MEL-2 melanoma, with SK-OV-3 ovarian and with SN12C renal was over 10 µM in each case. The TGI in the test with TK-10 renal and with UO-31 renal was over 10 µM each time.
Turning to `O=[N+]([O-])C(=C(Nc1ccccc1)Nc1ccccc1)C(Cl)=C(Cl)Cl`, the TGI in the test on 786-0 renal is 29.4 µM; in the test with A498 renal, 26.2 µM; with A549 NSCLC, 35.2 µM; in the test with COLO 205 colon, 34.1 µM; in the test with EKVX NSCLC, 33.1 µM; with HCT-116 colon, 25.5 µM. The TGI in the test on IGROV1 ovarian was 27.2 µM; with MDA-MB-231 breast, 33.3 µM; with MDA-MB-435 it was 28.7 µM; in the test on NCI-H460 lung it was 33 µM; in the test with NCI/ADR-RES ovarian, 58.2 µM; in the test with OVCAR-4 ovarian, 24.8 µM. The TGI in the test on RPMI-8226 leukemia was 65.9 µM; with SF-268 CNS, 40 µM; in the test on SF-295 CNS, 36.4 µM; in the test on SK-MEL-2 melanoma it was 28.3 µM; in the test on SK-OV-3 ovarian, 68.5 µM; in the test on SN12C renal, 35.5 µM. Besides, the TGI came out at 38 µM with TK-10 renal and 39.6 µM in the test with UO-31 renal.
Regarding `O=C(CCn1ccnc1[N+](=O)[O-])NCCCn1ccnc1[N+](=O)[O-]`, the TGI with 786-0 renal, in the test on A498 renal, with A549 NSCLC, in the test with COLO 205 colon, in the test with EKVX NSCLC and with HCT-116 colon was over 100 µM throughout. The TGI with IGROV1 ovarian, with MDA-MB-231 breast, in the test on MDA-MB-435, with NCI-H460 lung, in the test with NCI/ADR-RES ovarian and in the test on OVCAR-4 ovarian was over 100 µM in each case. The TGI with RPMI-8226 leukemia, with SF-268 CNS, in the test with SF-295 CNS, in the test with SK-MEL-2 melanoma, with SK-OV-3 ovarian and in the test on SN12C renal was over 100 µM throughout. Besides, the TGI with TK-10 renal and in the test with UO-31 renal was over 100 µM in each case.
Consider `CC(=NNC(=S)Nc1ccccc1)c1cccc(C(C)=NNC(=S)Nc2ccccc2)n1`, for which the TGI is 35.4 µM with 786-0 renal; over 80.8 µM in the test on A498 renal; over 46.4 µM in the test with A549 NSCLC; over 100 µM with COLO 205 colon; over 100 µM with EKVX NSCLC; over 100 µM with HCT-116 colon. Further, the TGI was over 50.2 µM in the test with IGROV1 ovarian; over 100 µM in the test on MDA-MB-231 breast; over 100 µM in the test with MDA-MB-435; over 56.8 µM in the test with NCI-H460 lung; over 100 µM with NCI/ADR-RES ovarian; over 100 µM with OVCAR-4 ovarian. For the same molecule, the TGI is over 31.4 µM with RPMI-8226 leukemia; over 100 µM in the test on SF-268 CNS; over 42 µM with SF-295 CNS; over 100 µM in the test on SK-MEL-2 melanoma; over 84.5 µM in the test on SK-OV-3 ovarian; over 100 µM with SN12C renal. Further, the TGI was over 100 µM in the test on TK-10 renal and over 52.1 µM with UO-31 renal.
For the molecule `COc1ccc(N2C(=O)CC(=O)N(NC(=O)C(C)Oc3ccccc3C)C2=S)cc1` (stereo not given), the TGI in the test on 786-0 renal, in the test on A498 renal, in the test with A549 NSCLC, in the test on COLO 205 colon, in the test on EKVX NSCLC and in the test on HCT-116 colon was over 100 µM throughout. In addition, the TGI in the test on IGROV1 ovarian, in the test on MDA-MB-231 breast, in the test with MDA-MB-435, in the test on NCI-H460 lung, in the test with NCI/ADR-RES ovarian and with OVCAR-4 ovarian was over 100 µM in each case. Besides, the TGI with RPMI-8226 leukemia, with SF-268 CNS, in the test with SF-295 CNS, in the test with SK-MEL-2 melanoma, in the test with SK-OV-3 ovarian and with SN12C renal was over 100 µM in each case. The TGI with TK-10 renal and with UO-31 renal was over 100 µM each time.
For the molecule `Cc1ccc(C2=CC(=O)OC(C[P+](c3ccccc3)(c3ccccc3)c3ccccc3)(c3ccccc3)O2)cc1` (stereo not given), the TGI with 786-0 renal is 35.7 µM; in the test on A498 renal, 29.1 µM; in the test with A549 NSCLC, 34.3 µM; in the test on COLO 205 colon, 28.3 µM; with EKVX NSCLC it was 30 µM; in the test with HCT-116 colon, 29.2 µM. Besides, the TGI came to 27.4 µM with IGROV1 ovarian; 82.3 µM with MDA-MB-231 breast; 30.7 µM in the test with MDA-MB-435; 43.8 µM in the test on NCI-H460 lung; 40.2 µM in the test with NCI/ADR-RES ovarian; 31.5 µM in the test on OVCAR-4 ovarian. Further, the TGI in the test on RPMI-8226 leukemia was determined as 46.1 µM; with SF-268 CNS, 38.2 µM; with SF-295 CNS it was 45.5 µM; in the test on SK-MEL-2 melanoma, 29.2 µM; in the test on SK-OV-3 ovarian it was 32.4 µM; in the test with SN12C renal it was 57.7 µM. Moreover, the TGI in the test on TK-10 renal was found to be 35.6 µM; in the test on UO-31 renal, 30.9 µM.
